Measured values as given in PubChem BioAssay AID248 (DTP/NCI, 2004).
Values joined by “and” are separate entries in the source; they are usually repeats but may differ in a detail not shown here. Equal values may be shown once. Toxic doses and inconclusive results are not listed. Cut-off read from the data, not from the text of the source: active = T/C of 150% or more; inactive = T/C below 125%.

System: L1210 leukemia ip in BDF1 mice, survival T/C
Experiment: NCI In Vivo Anticancer Drug Screen. Data for tumor model L1210 Leukemia (intraperitoneal) in B6D2F1 (BDF1) mice
Details: endpoint: mean survival time, higher = longer survival
Procedure, shortened: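 Transplanted-tumor mice were given test agent; controls received vehicle only. Survival readings from the two groups were divided (treated over control).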

[1] = dose: 100.0 mg/kg/injection, schedule: Q04DX002 (ip), vehicle: saline
[2] = dose: 100.0 mg/kg/injection, schedule: Q04DX003 (ip), vehicle: Klucel (hydroxypropylcellulose) (HPC)
[3] = dose: 200.0 mg/kg/injection, schedule: Q04DX003 (ip), vehicle: Klucel (hydroxypropylcellulose) (HPC)
[4] = dose: 400.0 mg/kg/injection, schedule: Q04DX003 (ip), vehicle: Klucel (hydroxypropylcellulose) (HPC)
[5] = dose: 100.0 mg/kg/injection, schedule: Q04DX002 (ip), vehicle: Klucel (hydroxypropylcellulose) (HPC)
[6] = dose: 200.0 mg/kg/injection, schedule: Q04DX002 (ip), vehicle: Klucel (hydroxypropylcellulose) (HPC)
[7] = dose: 400.0 mg/kg/injection, schedule: Q04DX002 (ip), vehicle: Klucel (hydroxypropylcellulose) (HPC)
[8] = dose: 100.0 mg/kg/injection, schedule: Q04DX003 (ip), vehicle: saline with Tween-80
[9] = dose: 400.0 mg/kg/injection, schedule: Q04DX003 (ip), vehicle: saline with Tween-80
[10] = dose: 100.0 mg/kg/injection, schedule: Q01DX009 (ip), vehicle: Klucel (hydroxypropylcellulose) (HPC)
[11] = dose: 200.0 mg/kg/injection, schedule: Q01DX009 (ip), vehicle: Klucel (hydroxypropylcellulose) (HPC)
[12] = dose: 400.0 mg/kg/injection, schedule: Q01DX009 (ip), vehicle: Klucel (hydroxypropylcellulose) (HPC)
[13] = dose: 100.0 mg/kg/injection, schedule: Q04DX003 (ip), vehicle: saline
[14] = dose: 200.0 mg/kg/injection, schedule: Q04DX003 (ip), vehicle: saline
[15] = dose: 400.0 mg/kg/injection, schedule: Q04DX003 (ip), vehicle: saline
[16] = dose: 100.0 mg/kg/injection, schedule: Q01DX001 (ip), vehicle: carboxymethylcellulose (CMC)
[17] = dose: 200.0 mg/kg/injection, schedule: Q01DX001 (ip), vehicle: carboxymethylcellulose (CMC)
[18] = dose: 400.0 mg/kg/injection, schedule: Q01DX001 (ip), vehicle: carboxymethylcellulose (CMC)
[19] = dose: 25.0 mg/kg/injection, schedule: Q01DX009 (ip), vehicle: Klucel (hydroxypropylcellulose) (HPC)
[20] = dose: 50.0 mg/kg/injection, schedule: Q01DX009 (ip), vehicle: Klucel (hydroxypropylcellulose) (HPC)
[21] = dose: 100.0 mg/kg/injection, schedule: Q01DX009 (ip), vehicle: saline
[22] = dose: 200.0 mg/kg/injection, schedule: Q01DX009 (ip), vehicle: saline
[23] = dose: 400.0 mg/kg/injection, schedule: Q01DX009 (ip), vehicle: saline

Measured: T/C

N#CC(C#N)N=O (tested in a mixture with another compound)
inactive: dose: 25.0 mg/kg/injection, schedule: Q04DX002 (ip), vehicle: saline 89 % of control | dose: 50.0 mg/kg/injection, schedule: Q04DX002 (ip), vehicle: saline 101 % of control | [1] 95 % of control and 97 % of control | dose: 200.0 mg/kg/injection, schedule: Q04DX002 (ip), vehicle: saline 105 % of control

O=C(/C=C/c1ccccc1)N(c1ccccc1)C1CCCCC1
inactive: [2] 112 % of control | [3] 89 % of control | [4] 88 % of control

Brc1ccc2oc3ccccc3c2c1
inactive: dose: 50.0 mg/kg/injection, schedule: Q04DX002 (ip), vehicle: Klucel (hydroxypropylcellulose) (HPC) 92 % of control | [5] 93 % of control | [1] 104 % of control | [6] 96 % of control | [7] 100 % of control | dose: 400.0 mg/kg/injection, schedule: Q04DX002 (ip), vehicle: saline 93 % of control

CC(C(N)=O)N1C(=O)C2C3C=CC(C3)C2C1=O (stereo not drawn)
inactive: [8] 109 % of control | [9] 97 % of control

Cc1cc(OC(=O)Nc2cccc(C(F)(F)F)c2)c(C)cc1Cl
inactive: [10] 106 % of control | [11] 118 % of control | [12] 102 % of control

COc1cc(O)c2ncccc2c1O
inactive: dose: 5.0 mg/kg/injection, schedule: Q01DX001 (ip), vehicle: saline 95 % of control | dose: 10.0 mg/kg/injection, schedule: Q01DX001 (ip), vehicle: saline 101 % of control | dose: 20.0 mg/kg/injection, schedule: Q01DX001 (ip), vehicle: saline 106 % of control | dose: 35.0 mg/kg/injection, schedule: Q01DX001 (ip), vehicle: saline 86 % of control and 91 % of control | dose: 40.0 mg/kg/injection, schedule: Q01DX001 (ip), vehicle: saline 103 % of control | dose: 50.0 mg/kg/injection, schedule: Q01DX001 (ip), vehicle: saline 93 % of control and 89 % of control

OC1CCC(O)CC1 (stereo not drawn)
inactive: [13] 100 % of control | [14] 100 % of control | [15] 115 % of control

CC(=O)Nc1ccc2c(c1)-c1ccc(F)cc1C2=O
inactive: [16] 96 % of control | [17] 103 % of control | [18] 89 % of control

c1ccc(C2OCC3OC(c4ccccc4)OC(C4SCCS4)C3O2)cc1 (stereo not drawn)
inactive: dose: 100.0 mg/kg/injection, schedule: Q01DX001 (ip), vehicle: gum acacia 92 % of control | dose: 200.0 mg/kg/injection, schedule: Q01DX001 (ip), vehicle: gum acacia 93 % of control | dose: 400.0 mg/kg/injection, schedule: Q01DX001 (ip), vehicle: gum acacia 93 % of control

CC(C)=CC(=O)OC1C2C(C)C(=O)OC2C(O)C(C)C2C=CC(=O)C21C (stereo not drawn)
inactive: dose: 6.25 mg/kg/injection, schedule: Q01DX009 (ip), vehicle: saline with Tween-80 95 % of control | dose: 12.5 mg/kg/injection, schedule: Q01DX009 (ip), vehicle: saline with Tween-80 97 % of control | [19] 97 % of control | dose: 25.0 mg/kg/injection, schedule: Q01DX009 (ip), vehicle: saline with Tween-80 103 % of control | dose: 25.0 mg/kg/injection, schedule: Q01DX009 (ip), vehicle: saline 93 % of control | [20] 94 % of control | dose: 50.0 mg/kg/injection, schedule: Q01DX009 (ip), vehicle: saline with Tween-80 103 % of control | dose: 50.0 mg/kg/injection, schedule: Q01DX009 (ip), vehicle: saline 100 % of control

O=C(Nc1cccc(Cl)c1Cl)Oc1cccc2ccccc12
inactive: [5] 101 % of control | [6] 108 % of control | [7] 114 % of control

Cc1cc(N(CCOS(C)(=O)=O)CCOS(C)(=O)=O)ccc1C=Nc1ccc(-c2csc(-c3ccc(Cl)cc3)n2)cc1
inactive: [19] 112 % of control | [20] 86 % of control

CC(=O)C1CCC2C3=CC=C4CC(O)CCC4(C)C3=CCC12C (stereo not drawn)
inactive: [2] 96 % of control | [3] 93 % of control | [4] 93 % of control

C[Si](C)(C)Oc1c(Cl)cc(Cl)cc1Cl
inactive: [8] 102 % of control | dose: 200.0 mg/kg/injection, schedule: Q04DX003 (ip), vehicle: saline with Tween-80 98 % of control | [9] 91 % of control

Cc1cccc(C)c1NC(=O)NC(C)C
inactive: [10] 106 % of control | [2] 93 % of control | [11] 94 % of control | [3] 94 % of control | [12] 99 % of control | [4] 93 % of control

CC(=O)OC1CCC2(C)C(=CC(=O)C3=C2CCC2(C)C3CCC2C(C)/C=C/C(C)C(C)C)C1 (stereo not drawn)
inactive: [21] 92 % of control | [13] 88 % of control | [22] 95 % of control | [14] 97 % of control | [23] 92 % of control | [15] 91 % of control

O=NN(Cc1ccccc1)NC(=O)c1ccccc1
inactive: dose: 100.0 mg/kg/injection, schedule: Q04DX002 (ip), vehicle: gum acacia 96 % of control | dose: 200.0 mg/kg/injection, schedule: Q04DX002 (ip), vehicle: gum acacia 104 % of control

NC(CC(=O)O)C(=O)O (stereo not drawn)
inactive: [16] 94 % of control | dose: 100.0 mg/kg/injection, schedule: Q01DX001 (ip), vehicle: saline 102 % of control and 95 % of control | [21] 97 % of control | [5] 98 % of control | [17] 89 % of control | dose: 200.0 mg/kg/injection, schedule: Q01DX001 (ip), vehicle: saline 96 % of control and 93 % of control | [22] 100 % of control | [6] 98 % of control | [18] 92 % of control | dose: 400.0 mg/kg/injection, schedule: Q01DX001 (ip), vehicle: saline 102 % of control and 90 % of control | [23] 97 % of control | dose: 400.0 mg/kg/injection, schedule: Q01DX030 (sc), vehicle: other 97 % of control | [7] 95 % of control | dose: 800.0 mg/kg/injection, schedule: Q01DX030 (sc), vehicle: other 96 % of control

CC(C)CCCC(C)C1CCC2C3CCC4(C)CCCCC4(C)C3CCC12C (stereo not drawn)
inactive: dose: 100.0 mg/kg/injection, schedule: Q01DX001 (ip), vehicle: Klucel (hydroxypropylcellulose) (HPC) 98 % of control | dose: 200.0 mg/kg/injection, schedule: Q01DX001 (ip), vehicle: Klucel (hydroxypropylcellulose) (HPC) 94 % of control | dose: 400.0 mg/kg/injection, schedule: Q01DX001 (ip), vehicle: Klucel (hydroxypropylcellulose) (HPC) 109 % of control
